The record followed here is patent US20250170248A1, “SMARCA DEGRADERS AND USES THEREOF” (Kymera Therapeutics, Inc., priority 2021, published 2025).

Common to all, as to format: cell-based
The target in assay [1] is T1, SMARCA2 (Homo sapiens, UniProt P51531). The assay can be described thus: SMARCA2 Western blot degradation in MV4-11 cells. Details: SMARCA2/SMARCA4 protein degradation selectivity in MV4-11 cells; endogenous in cells; host or cells: MV4-11. Particulars: for Dmax: MV4-11, MV4-11 cells, read-out: SMARCA2 MSD MV411 degradation 24 h: average Dmax %; for Dmax / DC50 / SMARCA2 MSD MV411 degradation 24 h: average Dmax %: 24 h; for DC50 / Selectivity in MV411 / SMARCA2 MSD MV411 degradation 24 h: average Dmax %: MV4-11 cells; for DC50: read-out: SMARCA2 MSD MV411 degradation 24 h: Mean external-Abs DC50; for Selectivity in MV411: SMARCA2/4 selectivity. A general note: A western blot detects proteins with antibodies after separation by electrophoresis.
T1 sequence (P51531 whole entry): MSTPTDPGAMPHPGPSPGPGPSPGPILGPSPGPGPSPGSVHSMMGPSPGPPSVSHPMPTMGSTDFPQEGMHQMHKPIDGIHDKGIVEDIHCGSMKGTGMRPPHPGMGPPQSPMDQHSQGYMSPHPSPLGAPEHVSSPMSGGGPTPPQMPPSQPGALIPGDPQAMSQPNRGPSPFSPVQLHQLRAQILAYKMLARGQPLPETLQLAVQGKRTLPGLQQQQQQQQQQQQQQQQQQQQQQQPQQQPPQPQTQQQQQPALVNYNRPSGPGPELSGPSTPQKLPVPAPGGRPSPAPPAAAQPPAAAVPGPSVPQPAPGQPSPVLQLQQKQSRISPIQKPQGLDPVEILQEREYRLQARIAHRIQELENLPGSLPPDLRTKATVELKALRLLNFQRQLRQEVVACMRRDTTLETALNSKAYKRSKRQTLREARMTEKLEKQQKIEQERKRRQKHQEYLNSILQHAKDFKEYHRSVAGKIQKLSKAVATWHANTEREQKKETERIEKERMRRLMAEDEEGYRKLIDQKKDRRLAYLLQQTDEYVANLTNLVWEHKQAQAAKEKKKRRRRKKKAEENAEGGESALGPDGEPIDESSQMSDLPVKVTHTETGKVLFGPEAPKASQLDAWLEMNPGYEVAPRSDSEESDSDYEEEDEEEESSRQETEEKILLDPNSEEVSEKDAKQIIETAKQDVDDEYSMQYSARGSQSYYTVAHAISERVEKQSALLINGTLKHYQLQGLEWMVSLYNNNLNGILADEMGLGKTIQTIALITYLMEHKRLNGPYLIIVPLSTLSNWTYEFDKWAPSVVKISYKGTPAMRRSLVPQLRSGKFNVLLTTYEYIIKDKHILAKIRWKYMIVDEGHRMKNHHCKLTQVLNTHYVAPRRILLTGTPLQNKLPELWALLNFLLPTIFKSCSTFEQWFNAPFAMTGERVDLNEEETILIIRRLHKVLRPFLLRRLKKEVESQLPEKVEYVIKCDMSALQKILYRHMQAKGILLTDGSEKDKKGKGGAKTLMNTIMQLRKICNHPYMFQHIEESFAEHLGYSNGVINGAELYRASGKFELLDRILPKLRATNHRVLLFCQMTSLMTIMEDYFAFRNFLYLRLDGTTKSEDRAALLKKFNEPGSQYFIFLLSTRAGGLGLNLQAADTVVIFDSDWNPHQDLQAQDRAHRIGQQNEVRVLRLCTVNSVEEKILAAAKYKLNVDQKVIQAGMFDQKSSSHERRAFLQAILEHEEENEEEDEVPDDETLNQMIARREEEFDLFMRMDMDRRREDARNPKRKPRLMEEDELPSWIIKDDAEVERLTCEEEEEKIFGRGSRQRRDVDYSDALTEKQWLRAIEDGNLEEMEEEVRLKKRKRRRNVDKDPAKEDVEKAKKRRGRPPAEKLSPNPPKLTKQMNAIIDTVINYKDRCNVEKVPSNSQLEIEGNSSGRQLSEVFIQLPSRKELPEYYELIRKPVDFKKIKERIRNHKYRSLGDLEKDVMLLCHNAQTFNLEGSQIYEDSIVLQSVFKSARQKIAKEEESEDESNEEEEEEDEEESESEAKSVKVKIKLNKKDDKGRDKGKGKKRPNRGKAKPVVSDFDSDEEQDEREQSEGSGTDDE

For the next assay, the target named is T2, SMARCA4 (Homo sapiens, UniProt P51532).
T2 construct: SMARCA2/SMARCA4 protein degradation selectivity in MV4-11 cells; endogenous in cells; host or cells: MV4-11
T2 sequence (P51532 whole entry): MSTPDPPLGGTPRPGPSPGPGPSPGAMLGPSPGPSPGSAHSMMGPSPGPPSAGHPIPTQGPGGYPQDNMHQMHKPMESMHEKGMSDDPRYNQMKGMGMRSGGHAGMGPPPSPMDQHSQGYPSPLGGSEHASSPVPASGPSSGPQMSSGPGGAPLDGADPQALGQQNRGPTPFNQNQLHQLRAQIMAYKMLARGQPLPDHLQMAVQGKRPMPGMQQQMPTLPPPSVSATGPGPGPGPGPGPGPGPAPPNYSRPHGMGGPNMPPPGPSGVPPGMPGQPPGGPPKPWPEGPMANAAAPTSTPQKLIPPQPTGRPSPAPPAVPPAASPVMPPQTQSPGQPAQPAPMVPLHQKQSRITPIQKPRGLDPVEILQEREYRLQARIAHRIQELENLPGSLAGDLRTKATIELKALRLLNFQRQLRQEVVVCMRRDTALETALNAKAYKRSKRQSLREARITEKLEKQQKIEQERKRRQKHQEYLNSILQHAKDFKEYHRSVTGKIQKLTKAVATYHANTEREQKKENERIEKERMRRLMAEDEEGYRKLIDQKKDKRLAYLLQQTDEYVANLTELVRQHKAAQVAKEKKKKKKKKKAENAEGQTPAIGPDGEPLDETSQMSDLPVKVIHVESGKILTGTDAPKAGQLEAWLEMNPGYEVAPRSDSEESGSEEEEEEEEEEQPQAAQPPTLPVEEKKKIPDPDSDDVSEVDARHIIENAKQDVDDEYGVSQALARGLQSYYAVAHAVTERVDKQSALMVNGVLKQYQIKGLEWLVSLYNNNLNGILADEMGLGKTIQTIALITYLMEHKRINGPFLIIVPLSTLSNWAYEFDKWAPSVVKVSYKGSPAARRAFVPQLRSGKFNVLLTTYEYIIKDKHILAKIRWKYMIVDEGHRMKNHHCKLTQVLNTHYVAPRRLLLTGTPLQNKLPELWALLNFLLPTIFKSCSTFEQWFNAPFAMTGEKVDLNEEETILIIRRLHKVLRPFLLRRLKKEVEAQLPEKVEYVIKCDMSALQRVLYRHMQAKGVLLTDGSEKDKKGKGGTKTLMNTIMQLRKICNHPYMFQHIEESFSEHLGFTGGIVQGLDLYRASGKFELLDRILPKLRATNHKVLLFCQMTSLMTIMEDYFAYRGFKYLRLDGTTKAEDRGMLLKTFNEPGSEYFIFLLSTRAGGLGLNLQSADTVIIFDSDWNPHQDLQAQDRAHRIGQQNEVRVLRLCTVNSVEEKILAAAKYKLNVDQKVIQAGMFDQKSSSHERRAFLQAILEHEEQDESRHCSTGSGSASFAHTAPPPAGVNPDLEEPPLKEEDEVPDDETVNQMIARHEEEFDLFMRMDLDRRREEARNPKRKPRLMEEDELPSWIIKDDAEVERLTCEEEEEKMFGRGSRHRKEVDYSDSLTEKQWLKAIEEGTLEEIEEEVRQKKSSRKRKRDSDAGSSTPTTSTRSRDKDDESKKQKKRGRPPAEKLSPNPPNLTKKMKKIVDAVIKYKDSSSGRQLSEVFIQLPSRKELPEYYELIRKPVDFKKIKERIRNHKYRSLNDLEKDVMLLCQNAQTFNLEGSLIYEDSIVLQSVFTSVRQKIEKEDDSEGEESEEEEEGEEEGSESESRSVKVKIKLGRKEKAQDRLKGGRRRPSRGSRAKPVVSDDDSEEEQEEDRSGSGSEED
The experiment in a line: SMARCA4 Western blot degradation in MV4-11 cells. Particulars: for Dmax: MV4-11, MV4-11 cells, read-out: SMARCA4 MSD MV411 degradation 24 h: average Dmax %; for Dmax / DC50: 24 h; for DC50 / SMARCA4 MSD MV411 degradation 24 h: average Dmax %: MV4-11 cells; for DC50: read-out: SMARCA4 MSD MV411 degradation 24 h: Mean external-Abs DC50. The procedure, abridged: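 24 h compound exposure, MV4-11; RIPA lysates → SDS-PAGE → NC membrane; anti-SMARCA2/BRM, anti-BRG1, β-actin loading control; LI-COR fluorescence read. DC50 and Dmax at 24 h reported as letter bins.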

For assay [2], the target named is T1, SMARCA2. The experiment in a line: MSD SMARCA2 degradation in A549 cell line. The following applies: for Dmax: A549, A549 cells; for Dmax / DC50: 24 h; for DC50 / SMARCA2 MSD A549 degradation 24 h: Average Dmax %: A549 cells; for DC50: read-out: SMARCA2 MSD A549 degradation 24 h: Average external-Abs DC50. An outline of the steps:
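A549 cells treated 24 h with compound, 3-fold series from 1000 nM. Lysates captured on MSD plates and SMARCA2 quantified with anti-SMARCA2 and SULFO-TAG secondary antibodies (electrochemiluminescence). DC50 and Dmax (% degradation at 24 h) reported as letter bins.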

As to `Cc1ncsc1-c1ccc(CNC(=O)[C@@H]2C[C@@H](O)CN2C(=O)[C@@H](NC(=O)[C@H]2CCC3(CC2)C[C@H](N2CCC(c4ccc(N5CCN6c7cc(-c8ccccc8O)nnc7NC[C@H]6C5)nc4)CC2)C3)C(C)(C)C)cc1` (some centres unmarked) [I-148], the figures for the maximal degradation (Dmax) on SMARCA2 [1], at SMARCA4 and at SMARCA2 [2] were 70 to 90%, below 50% and above 90%, respectively. For the same compound, the DC50 (in general, the concentration at which degradation of the target reaches its halfway point) is 10 to 100 nM at SMARCA2 [1], above 100 nM at SMARCA4 and 50 to 100 nM at SMARCA2 [2]. Besides, on SMARCA2 [1], the “Selectivity in MV411” value was “B (B (>100-500 fold))”.

Regarding `C#Cc1ccc(CNC(=O)[C@@H]2C[C@@H](O)CN2C(=O)[C@@H](NC(=O)N2CC3(CC(c4cnc(N5CCC(N6CCN7c8cc(-c9ccccc9O)nnc8NC[C@H]7C6)CC5)nc4)C3)C2)C(C)(C)C)cc1` [I-276], on SMARCA2 [1], the Dmax (in general, the greatest extent of degradation seen) is above 90%; the DC50 was in the range of 1 to 10 nM; the “Selectivity in MV411” value is “C (C (10-100 fold))”. On SMARCA4, the Dmax is above 90% and the DC50 lay within 10 to 100 nM. Further, on SMARCA2 [2], the Dmax was above 90% and the 50% degradation concentration (DC50) is below 10 nM.

Consider `C#Cc1ccc(CNC(=O)[C@@H]2C[C@@H](O)CN2C(=O)[C@@H](NC(=O)[C@H]2CCC3(CC2)C[C@H](N2CCC(c4ccc(N5CCN6c7cc(-c8ccccc8O)nnc7NC[C@H]6C5)nc4)CC2)C3)C(C)(C)C)cc1` (single isomer, unassigned) [I-155], for which, on SMARCA2 [1], the greatest degradation seen (Dmax) was in the range of 70 to 90%, the 50% degradation concentration (DC50) lay within 1 to 10 nM and the “Selectivity in MV411” value is recorded as “A (A (>500 fold))”. On SMARCA4, the greatest degradation seen (Dmax) was below 50% and the DC50 was above 100 nM. On SMARCA2 [2], the greatest degradation seen (Dmax) was above 90% and the half-maximal degradation concentration (DC50) is 10 to 50 nM.

Take `C#Cc1ccc(CNC(=O)[C@@H]2C[C@@H](O)CN2C(=O)[C@@H](NC(=O)N2CCO[C@@H](CN3CCC(N4CCC(N5CCN6c7cc(-c8ccccc8O)nnc7NC[C@H]6C5)CC4)CC3)C2)C(C)(C)C)cc1` [I-218]: at SMARCA2 [1], the Dmax was below 50%, the 50% degradation concentration (DC50) was above 100 nM and the “Selectivity in MV411” value is listed as “C (C (10-100 fold))”. Further, at SMARCA4, the maximal degradation (Dmax) was below 50% and the 50% degradation concentration (DC50) was above 100 nM. Besides, on SMARCA2 [2], the maximal degradation (Dmax) is 50 to 70% and the DC50 was above 100 nM.

For the compound `C#Cc1ccc(CNC(=O)[C@@H]2C[C@@H](O)CN2C(=O)[C@@H](NC(=O)N2CCN(CC3CCN([C@H]4CC[C@H](N5CCc6[nH]c7nnc(-c8ccccc8O)cc7c6[C@H]5C)CC4)CC3)CC2)C(C)(C)C)cc1` [I-204], the Dmax at SMARCA2 [1] is below 50%; at SMARCA4, below 50%; at SMARCA2 [2], 70 to 90%. The DC50 on SMARCA2 [1], at SMARCA4 and at SMARCA2 [2] was above 100 nM throughout. For the same compound, the “Selectivity in MV411” value on SMARCA2 [1] was “C (C (10-100 fold))”.

With `C#Cc1ccc(CNC(=O)[C@@H]2C[C@@H](O)CN2C(=O)[C@@H](NC(=O)N2CCC(N3CC4(CC(N5CC6(CC(N7CCc8[nH]c9nnc(-c%10ccccc%10O)cc9c8[C@H]7C)C6)C5)C4)C3)CC2)C(C)(C)C)cc1` [I-209], the Dmax on SMARCA2 [1] was below 50%; on SMARCA4, below 50%; on SMARCA2 [2], 70 to 90%. The DC50 at SMARCA2 [1], at SMARCA4 and on SMARCA2 [2] was above 100 nM each time. In addition, at SMARCA2 [1], the “Selectivity in MV411” value was “C (C (10-100 fold))”.

Turning to `C#Cc1ccc(CNC(=O)[C@@H]2C[C@@H](O)CN2C(=O)[C@@H](NC(=O)[C@H]2CC3(C2)C[C@H](N2CCC(N4CCC(N5CCN6c7cc(-c8ccccc8O)nnc7NC[C@H]6C5)CC4)CC2)C3)C(C)(C)C)cc1` (single isomer, unassigned) [I-113], the Dmax is 70 to 90% at SMARCA2 [1], 50 to 70% on SMARCA4 and above 90% at SMARCA2 [2]. For the same compound, the DC50 on SMARCA2 [1] was 1 to 10 nM; at SMARCA4, above 100 nM; at SMARCA2 [2], 10 to 50 nM. Also, the “Selectivity in MV411” value at SMARCA2 [1] is listed as “B (B (>100-500 fold))”.

Turning to `Cc1ncsc1-c1ccc(CNC(=O)[C@@H]2C[C@@H](O)CN2C(=O)[C@@H](NC(=O)N2CC3(CCC(N4CCC(c5cnc(N6CCc7[nH]c8nnc(-c9ccccc9O)cc8c7[C@@H]6C)nc5)CC4)CC3)C2)C(C)(C)C)cc1` (single isomer, unassigned) [I-63], on SMARCA2 [1], the Dmax was 70 to 90%, the DC50 is 10 to 100 nM and the “Selectivity in MV411” value is recorded as “C (C (10-100 fold))”. Further, at SMARCA4, the Dmax was in the range of 50 to 70% and the DC50 is above 100 nM. Besides, on SMARCA2 [2], the maximal degradation (Dmax) is above 90% and the 50% degradation concentration (DC50) was 10 to 50 nM.

As to `CC#Cc1ccc(CNC(=O)[C@@H]2C[C@@H](O)CN2C(=O)[C@@H](NC(=O)[C@H]2CCC3(CC2)C[C@H](N2CCC(c4cnc(N5CCN6c7cc(-c8ccccc8O)nnc7NC[C@H]6C5)nc4)CC2)C3)C(C)(C)C)cc1` (single isomer, unassigned) [I-117], at SMARCA2 [1], the “SMARCA2 MSD MV411 degradation 24 h: average Dmax %” value is on record as “C (C (50-70% degradation))”, the DC50 lay within 10 to 100 nM and the “Selectivity in MV411” value was “C (C (10-100 fold))”. Moreover, on SMARCA4, the “SMARCA4 MSD MV411 degradation 24 h: average Dmax %” value is recorded as “D (D (<50% degradation))” and the DC50 was above 100 nM. On SMARCA2 [2], the “SMARCA2 MSD A549 degradation 24 h: Average Dmax %” value is reported as “A (A (>90% degradation))” and the half-maximal degradation concentration (DC50) was above 100 nM.

Regarding `C#Cc1ccc(CNC(=O)[C@@H]2C[C@@H](O)CN2C(=O)[C@@H](NC(=O)[C@H]2CCC3(CC2)C[C@H](N2CCN(c4cnc(N5CCN6c7cc(-c8ccccc8O)nnc7NC[C@H]6C5)nc4)CC2)C3)C(C)(C)C)cc1` (single isomer, unassigned) [I-170], at SMARCA2 [1], the “SMARCA2 MSD MV411 degradation 24 h: average Dmax %” value is listed as “B (B (>70-90% degradation))”, the DC50 fell in the range of 1 to 10 nM and the “Selectivity in MV411” value was “C (C (10-100 fold))”. For the same compound, on SMARCA4, the “SMARCA4 MSD MV411 degradation 24 h: average Dmax %” value was “C (C (50-70% degradation))” and the DC50 is above 100 nM. On SMARCA2 [2], the “SMARCA2 MSD A549 degradation 24 h: Average Dmax %” value is listed as “A (A (>90% degradation))” and the 50% degradation concentration (DC50) lay within 10 to 50 nM.

Regarding `C#Cc1ccc(CNC(=O)[C@@H]2C[C@@H](O)CN2C(=O)[C@@H](NC(=O)N2CC3(CC(N4CCC(c5cnc(N6CCc7[nH]c8nnc(-c9ccccc9O)cc8c7[C@H]6C)nc5)CC4)C3)C2)C(C)(C)C)cc1Cl` [I-309], on SMARCA2 [1], the Dmax is above 90%, the DC50 lay within 10 to 100 nM and the “Selectivity in MV411” value is on record as “C (C (10-100 fold))”. Further, on SMARCA4, the Dmax lay in the range of 70 to 90% and the DC50 was above 100 nM. Moreover, on SMARCA2 [2], the Dmax was above 90% and the DC50 lay within 10 to 50 nM.

Regarding `C#Cc1ccc(CNC(=O)[C@@H]2C[C@@H](O)CN2C(=O)[C@@H](NC(=O)N2CCCC(N3CCC(c4cnc(N5CCN6c7cc(-c8ccccc8O)nnc7NC[C@H]6C5)nc4)CC3)C2)C(C)(C)C)cc1` (mixture of isomers) [I-245], the Dmax was 50 to 70% at SMARCA2 [1], below 50% on SMARCA4 and 70 to 90% at SMARCA2 [2]. Also, the DC50 was 10 to 100 nM on SMARCA2 [1], above 100 nM at SMARCA4 and above 100 nM at SMARCA2 [2]. The “Selectivity in MV411” value on SMARCA2 [1] is “B (B (>100-500 fold))”.

`C#Cc1ccc(CNC(=O)[C@@H]2C[C@@H](O)CN2C(=O)[C@@H](NC(=O)[C@H]2CCC3(CC2)C[C@H](N2CCC(c4cnc(N5CCN6c7cc(-c8cccc(F)c8O)nnc7NC[C@H]6C5)nc4)CC2)C3)C(C)(C)C)cc1` (single isomer, unassigned) [I-102]: at SMARCA2 [1], the greatest degradation seen (Dmax) fell in the range of 70 to 90%, the DC50 lay within 1 to 10 nM and the “Selectivity in MV411” value was “C (C (10-100 fold))”. At SMARCA4, the maximal degradation (Dmax) is 50 to 70% and the DC50 was above 100 nM. On SMARCA2 [2], the “SMARCA2 MSD A549 degradation 24 h: Average Dmax %” value was “A (A (>90% degradation))” and the DC50 fell in the range of 10 to 50 nM.

For the compound `C#Cc1ccc(CNC(=O)[C@@H]2C[C@@H](O)CN2C(=O)[C@@H](N(C)C(=O)N2CC3(CC(N4CCC(c5cnc(N6CCc7[nH]c8nnc(-c9ccccc9O)cc8c7[C@H]6C)nc5)CC4)C3)C2)C(C)(C)C)cc1` [I-139], at SMARCA2 [1], the Dmax is below 50%, the DC50 is above 100 nM and the “Selectivity in MV411” value is given as “C (C (10-100 fold))”. For the same compound, on SMARCA4, the Dmax was 50 to 70% and the 50% degradation concentration (DC50) is above 100 nM. On SMARCA2 [2], the maximal degradation (Dmax) was below 50% and the DC50 was above 100 nM.

Regarding `C#Cc1cnc(CNC(=O)[C@@H]2C[C@@H](O)CN2C(=O)[C@@H](NC(=O)[C@H]2CC3(C2)C[C@H](N2CCC(N4CCC(N5CCN6c7cc(-c8ccccc8O)nnc7NC[C@H]6C5)CC4)CC2)C3)C(C)(C)C)c(OC)c1` (some centres unmarked) [I-331], at SMARCA2 [1], the “Selectivity in MV411” value is reported as “C (C (10-100 fold))”. The DC50 on SMARCA4 and at SMARCA2 [2] was above 100 nM each time.
